From patent US7071187B2, “Naphthyridine derivatives” (Otsuka Pharmaceutical Factory, Inc., priority 2001, dated 2006) come the findings set out here.

Molecules are shown by their SMILES.

The test system of series [1] is male S.D. rats injected with Substance P. The series is described as follows: Pharmacological Test 3: analgesic effect (Randall-Sellitto pain threshold after Substance P injection). Type of series: in vivo, rat. The note with it: for analgesic effect (in words): conclusion from Table 15; for Recovery rate (%) of the pain threshold (highest recovery rate): oral, 5% gum arabic suspension 10 ml/kg, measurement point 60 minutes after Substance P injection. As for the experimental part: Pharmacological Test 3 Test for Evaluating Analgesic Effect Using two groups (test group and control group) each consisting of 6-week-old male S.D. rats (7 rats in each group), the pain threshold of each rat's left hind paw was measured using an Analgesy-meter (product of Unicom) in accordance with the Randall-Sellitto method [Randall, L. O. and Sellitto, J. J., Arch. Int. Pharmacodyn., 111, 409–419 (1957)]. The value thus obtained was termed “pre-value”. One hour after the measurement of the pre-value, a 5% gum arabic suspension containing compound of the invention was orally administered to the rats of the test group in an amount of 10 ml/kg, whereas a 5% gum arabic suspension (not containing compound of the invention) was orally administered to the rats of the control group in an amount of 10 ml/kg. One hour after the oral administration, a physiological saline solution containing Substance P (25 ng/0.1 ml) was subcutaneously injected into the left hind paw of each rat. The pain threshold of each rat's left hind paw was measured in the same manner as above at predetermined time intervals after the Substance P injection. The measured value is termed the “post-value”. The recovery rate (%) of the pain threshold was calculated from the post-values and pre-values of the test group and control group, by means of the following formula: [formula]

In series [2] the test system is excised ilea of Hartley male guinea pigs. Briefly: Pharmacological Test 2: adenosine enhancing effect on electrically stimulated contraction of excised ileum. To be noted: guinea pig ileum, n=2. Here is the method: Adenosine Enhancing Effect
The compounds obtained in Examples 1 and 34 were used as test compounds in the form of a dimethyl sulfoxide solution.
As experimental animals, Hartley male guinea pigs (purchased from CHARLES RIVER JAPAN, INC.) (that were in good general condition at least 6 days after the purchase) were used. The animals were housed in a cage under controlled conditions of temperature of 20 to 26° C. (actually measured value: 22.1 to 22.9° C.), humidity of 40–70% (actually measured value: 50.3–51.5%) and lighting of 12 hours/day (7:00–19:00). The animals had free access to food (solid diet, product name of Labo G Standard, product of Nosan Corporation) and tap water.
The following experiments were conducted using the excised ilea (n=2) of experimental animals (body weight at the time of testing: 316–388 g). The experimental animals were bled and slaughtered. […] The contraction reaction of samples was recorded on an ink-writing recorder (GRAPHTEC, SR-6211, SR-6221) through an isotonic transducer (product of NIHON KOHDEN CORPORATION, TD-112S). […]
That is, the nutrient solution was exchanged, electronic stimulation was applied to the samples 15 minutes after exchange of the nutrient solution, and, when contraction stabilized, adenosine was cumulatively added from 10^−6 M to 10^−5 M. The adenosine dose-response curve was then obtained, and the ED50 value was calculated. […]

In series [3] the test system is streptozotocin (STZ) treated male S.D. rats. Briefly: Pharmacological Test 1: therapeutic effect on diabetic neuropathy (Randall-Selitto pain threshold in STZ rats). Type of series: in vivo, rat. The note with it: 30 mg/kg orally once a day, three hours after administration, left hind paw. As for the experimental part:
Pharmacological Test 1 Therapeutic Effect on Diabetic Neuropathy A model group was obtained by intravenously administering 50 mg/kg streptozotocin (STZ) dissolved in 0.01 M citrate buffer solution to 8-week-old male S.D. rats. After administration, five rats were housed per cage and kept therein. Three weeks after administration of STZ, the pain threshold of each rat's left hind paw to pressure stimulation was measured by Randall-Selitto Test [Randall, L. O. and Selitto, J. J. Arch. Int. Pharmacodyn., 111, 409–419 (1957)]. The value thus obtained was termed “pre-value”. […] A 5% gum arabic solution containing the test compound was orally administered as specimen to experimental animals in one of the above three groups (test group) in such a manner that each dosage of the test compound was 30 mg/kg and the amount of administered solution was 10 ml/kg, once a day for 21 continuous days. […] On the 14th and 21st days, the pain threshold of the left hind paw of the experiment animals was measured three hours after administration. The recovery rate (%) of the pain threshold was calculated by means of the following formula: Recovery rate (%)=[(T−C)/(N−C)]×100 (wherein T is the test group average value, C is the control group average value and N is the non-treated group average value.)

`C[S+](CCOCc1ccccc1)c1c([O-])c2cccnc2n(Cc2ccccc2)c1=O` (centres unmarked) [Example 2]: the melting point (commonly the temperature of the solid-liquid transition) fell in the range of 130 to 132 °C.
Molecule `COc1cc(OCCC[S+](C)c2c([O-])c3cccnc3n(Cc3ccccc3)c2=O)cc(OC)c1OC` (centres unmarked) [Example 1, 1-benzyl-3-[methyl-3-(3,4,5-trimethoxyphenoxy)propylsulfonium]-1,8-naphthyridine-2(1H)-one-4-olate] gave a melting point of 147 to 149 °C. Further, in series [1], the “analgesic effect (in words)” value is “excellent analgesic effect” and the “Recovery rate (%) of the pain threshold (highest recovery rate)” value (shortened to “Recovery rate (%) … (highest recovery rate)”) is 46%. In addition, the “Adenosine enhancing effect (ED50(−)/ED50(+))” value in series [2] (test compound concentration 10^−6 M) is 11.11. Also, the “Recovery rate (%) of the pain threshold, 14th day” value in series [3] (14th day) is listed as 46.2%. The “Recovery rate (%) of the pain threshold, 21st day” value in series [3] (21st day) was found to be 56.7%.
On to `CC[S+](CCCOc1cc(OC)c(OC)c(OC)c1)c1c([O-])c2cccnc2n(Cc2ccccc2)c1=O` (centres unmarked) [Example 34, 1-benzyl-3-[ethyl-3-(3,4,5-trimethoxyphenoxy)propylsulfonium]-1,8-naphthyridine-2(1H)-one-4-olate], for which, in series [2] (test compound concentration 10^−5 M), the “Adenosine enhancing effect (ED50(−)/ED50(+))” value was 14.00.
For `C[S+](CCCOc1ccc(Cl)cc1)c1c([O-])c2cccnc2n(Cc2ccccc2)c1=O` (centres unmarked) [Example 3], the melting point lay in the range of 145 to 147 °C.
Take `COc1cc(Cn2c(=O)c([S+](C)CCOc3cc(OC)c(OC)c(OC)c3)c([O-])c3cccnc32)cc(OC)c1OC` (centres unmarked) [Example 15, 1-(3,4,5-trimethoxybenzyl)-3-[methyl-2-(3,4,5-trimethoxyphenoxy)ethylsulfonium]-1,8-naphthyridine-2(1H)-one-4-olate]: in series [1], the “analgesic effect (in words)” value is listed as “excellent analgesic effect” and the “Recovery rate (%) … (highest recovery rate)” value is 39%.
As to `C[S+](CCOCc1ccc2c(c1)OCO2)c1c([O-])c2cccnc2n(Cc2ccccc2)c1=O` (centres unmarked) [Example 7], the melting point lay within 124 to 126 °C.
Same read-out and setting: in the case of `COc1cc(COCC[S+](C)c2c([O-])c3cccnc3n(Cc3ccccc3)c2=O)cc(O)c1OC` (centres unmarked) [Example 9] it was 132 to 134 °C.
As to `COc1cc(OCC[S+](C)c2c([O-])c3cccnc3n(C)c2=O)cc(OC)c1OC` (centres unmarked) [Example 36, 1-methyl-3-[methyl-2-(3,4,5-trimethoxyphenoxy)ethylsulfonium]-1,8-naphthyridine-2(1H)-one-4-olate], in series [1], the “analgesic effect (in words)” value was “excellent analgesic effect” and the “Recovery rate (%) … (highest recovery rate)” value was determined as 111%.
The molecule `COc1cc(COCC[S+](C)c2c([O-])c3cccnc3n(Cc3ccccc3)c2=O)cc2c1OCO2` (centres unmarked) [Example 8] yielded a melting point of 84 to 87 °C.
Same read-out and setting: the value for `Cc1cc(C)c(COCC[S+](C)c2c([O-])c3cccnc3n(Cc3ccccc3)c2=O)c(C)c1` (centres unmarked) [Example 5] was 165 to 167 °C; that for `C[S+](CCOCc1cc(C(F)(F)F)cc(C(F)(F)F)c1)c1c([O-])c2cccnc2n(Cc2ccccc2)c1=O` (centres unmarked) [Example 6] was 157 to 159 °C; that for `COc1cc(COCC[S+](C)c2c([O-])c3cccnc3n(Cc3ccccc3)c2=O)cc(OC)c1O` (centres unmarked) [Example 10] was 121 to 123 °C.
Still for that read-out and setting: the value for `Cc1cccc(C)c1COCC[S+](C)c1c([O-])c2cccnc2n(Cc2ccccc2)c1=O` (centres unmarked) [Example 4] was 161 to 163 °C.
